Measured values from patent publication US20040037843A1, “Inducing cellular immune responses to prostate cancer antigens using peptide and nucleic acid compositions” (priority 2003, published 2004).

System: .221A2.1 peptide-loaded target cells and cells expressing endogenous antigen
Experiment: Primary in vitro CTL induction with peptide-pulsed DC, CTL lytic activity by 51Cr release
Assay type: cell-based, human
Conditions: immunogenicity, positive/tested; for A2 peptide: CTL recognition of the peptide; for A2 native: CTL recognition of native (wild-type) target
Description: Testing was performed using the following methodology:
Cells that express an antigen of interest, or transfectants comprising the gene encoding the antigen of interest, can be used as target cells to test the ability of peptide-specific CTLs to recognize endogenous antigen.
The monocytes are purified by plating 10×10^6 PBMC/well in a 6-well plate. After 2 hours at 37° C., the non-adherent cells are removed by gently shaking the plates and aspirating the supernatants. The wells are washed a total of three times with 3 ml RPMI to remove most of the non-adherent and loosely adherent cells. Three ml of complete medium containing 50 ng/ml of GM-CSF and 1,000 U/ml of IL-4 are then added to each well. TNFα is added to the DCs on day 6 at 75 ng/ml and the cells are used for CTL induction cultures on day 7.
Induction of CTL with DC and Peptide: CD8+ T-cells are isolated by positive selection with Dynal imnmunomagnetic beads (Dynabeads® M-450) and the detacha-bead® reagent. Typically about 200-250×10^6 PBMC are processed to obtain 24×10^6 CD8^+T-cells (enough for a 48-well plate culture). Briefly, the PBMCs are thawed in RPMI with 30 μg/ml DNAse, washed once with PBS containing 1% human AB serum and resuspended in PBS/1% AB serum at a concentration of 20×10^6 cells/ml. The magnetic beads are washed 3 times with PBS/AB serum, added to the cells (140 μl beads/20×10^6 cells) and incubated for 1 hour at 4° C. with continuous mixing. The beads and cells are washed 4× with PBS/AB serum to remove the nonadherent cells and resuspended at 100×10^6 cells/ml (based on the original cell number) in PBS/AB serum containing 100 μl/ml detacha-bead® reagent and 30 μg/ml DNAse. The mixture is incubated for 1 hour at room temperature with continuous mixing. The beads are washed again with PBS/AB/DNAse to collect the CD8+ T-cells. The DC are collected and centrifuged at 1300 rpm for 5-7 minutes, washed once with PBS with 1% BSA, counted and pulsed with 40 μg/ml of peptide at a cell concentration of 1-2×10^6/ml in the presence of 3 μg/ml β2-microglobulin for 4 hours at 20° C. The DC are then irradiated (4,200 rads), washed 1 time with medium and counted again.
Setting up induction cultures: 0.25 ml cytokine-generated DC (@1×10^5 cells/ml) are co-cultured with 0.25 ml of CD8+ T-cells (@2×10^6 cell/ml) in each well of a 48-well plate in the presence of 10 ng/ml of IL-7. Recombinant human IL10 is added the next day at a final concentration of 10 ng/ml and rhuman IL2 is added 48 hours later at 10 IU/mL.
Restimulation of the induction cultures with peptide-pulsed adherent cells: Seven and fourteen days after the primary induction the cells are restimulated with peptide-pulsed adherent cells. The PBMCS are thawed and washed twice with RPMI and DNAse. The cells are resuspended at 5×10^6 cells/ml and irradiated at ˜4200 rads. The PBMCs are plated at 2×10^6 in 0.5 ml complete medium per well and incubated for 2 hours at 37° C. The plates are washed twice with RPMI by tapping the plate gently to remove the nonadherent cells and the adherent cells pulsed with 10 μg/ml of peptide in the presence of 3 μg/ml β2 microglobulin in 0.25 ml RPMI/5% AB per well for 2 hours at 37° C. Peptide solution from each well is aspirated and the wells are washed once with RPMI. Most of the media is aspirated from the induction cultures (CD8+ cells) and brought to 0.5 ml with fresh media. The cells are then transferred to the wells containing the peptide-pulsed adherent cells. Twenty four hours later rhuman IL10 is added at a final concentration of 10 ng/ml and rhuman IL2 is added the next day and again 2-3 days later at 50 IU/ml (Tsai et al., Critical Reviews in Immunology 18(1-2):65-75, 1998). Seven days later the cultures are assayed for CTL activity in a ^51Cr release assay. In some experiments the cultures are assayed for peptide-specific recognition in the in situ IFNγ ELISA at the time of the second restimulation followed by assay of endogenous recognition 7 days later. […]

CC(C)C[C@H](NC(=O)[C@H](CC(=O)O)NC(=O)[C@@H](NC(=O)[C@H](CS)NC(=O)[C@H](CCC(N)=O)NC(=O)[C@H](CC(C)C)NC(=O)[C@@H](N)CCCCN)C(C)C)C(=O)N[C@@H](Cc1c[nH]cn1)C(=O)N[C@H](C(=O)O)C(C)C [Peptide 990.01]
A2 peptide: 1/2

CC[C@H](C)[C@H](N)C(=O)N[C@@H](CC(C)C)C(=O)N[C@@H](CC(C)C)C(=O)N[C@@H](Cc1c[nH]c2ccccc12)C(=O)N[C@@H](CCC(N)=O)C(=O)N1CCC[C@H]1C(=O)N[C@H](C(=O)N1CCC[C@H]1C(=O)N[C@H](C(=O)O)C(C)C)[C@@H](C)CC [Peptide 1044.04]
A2 peptide: 5/5

CC[C@H](C)[C@H](N)C(=O)N[C@@H](CCSC)C(=O)N[C@@H](Cc1ccc(O)cc1)C(=O)N[C@@H](CO)C(=O)N[C@@H](C)C(=O)N[C@@H](Cc1c[nH]cn1)C(=O)N[C@@H](CC(=O)O)C(=O)N[C@H](C(=O)N[C@H](C(=O)N[C@H](C(=O)O)C(C)C)[C@@H](C)O)[C@@H](C)O [Peptide 1097.05]
A2 peptide: 3/3

CC(C)C[C@H](NC(=O)[C@H](Cc1c[nH]c2ccccc12)NC(=O)[C@H](Cc1ccccc1)NC(=O)[C@H](Cc1ccccc1)NC(=O)[C@H](CC(C)C)NC(=O)[C@@H](N)CC(C)C)C(=O)N[C@@H](CC(=O)O)C(=O)N[C@@H](CCCNC(=N)N)C(=O)N[C@@H](CO)C(=O)N[C@H](C(=O)O)C(C)C [Peptide 1097.09]
A2 peptide: 3/3

CC(C)C[C@H](NC(=O)[C@H](CCC(=O)O)NC(=O)[C@H](CCCCN)NC(=O)[C@H](C)NC(=O)[C@H](CC(C)C)NC(=O)[C@@H](N)C(C)C)C(=O)N[C@@H](CCCCN)C(=O)N[C@@H](Cc1ccccc1)C(=O)N[C@H](C(=O)O)C(C)C [Peptide 1097.17]
A2 peptide: 1/3

CC(C)C[C@H](NC(=O)[C@H](CCCCN)NC(=O)[C@H](CCCCN)NC(=O)[C@@H]1CCCN1C(=O)[C@@H](NC(=O)[C@H](CC(C)C)NC(=O)[C@@H](N)Cc1ccccc1)[C@@H](C)O)C(=O)N[C@@H](CCC(N)=O)C(=O)N[C@@H](CS)C(=O)N[C@H](C(=O)O)C(C)C [Peptide 1098.02]
A2 peptide: 3/4

CSCC[C@H](NC(=O)[C@H](CC(C)C)NC(=O)[C@H](CCC(N)=O)NC(=O)[C@H](CC(=O)O)NC(=O)[C@H](CC(N)=O)NC(=O)[C@H](CCSC)NC(=O)[C@@H](N)CCSC)C(=O)N[C@@H](Cc1ccccc1)C(=O)N[C@@H](CC(C)C)C(=O)O [Peptide 1126.01]
A2 peptide: 2/2

CSCC[C@H](NC(=O)[C@H](CC(C)C)NC(=O)[C@H](CCC(N)=O)NC(=O)[C@H](CC(=O)O)NC(=O)[C@H](CC(N)=O)NC(=O)[C@H](CCSC)NC(=O)[C@H](CCSC)NC(=O)[C@@H](N)CCCNC(=N)N)C(=O)N[C@@H](Cc1ccccc1)C(=O)N[C@@H](CC(C)C)C(=O)O [Peptide 1126.06]
A2 peptide: 1/1

CC(C)C[C@H](NC(=O)[C@H](CC(C)C)NC(=O)[C@H](Cc1ccccc1)NC(=O)[C@H](Cc1ccccc1)NC(=O)CNC(=O)CNC(=O)[C@H](C)NC(=O)[C@H](CC(C)C)NC(=O)[C@@H](N)C(C)C)C(=O)O [Peptide 1126.10]
A2 peptide: 1/2

CSCC[C@H](NC(=O)[C@@H](N)CC(C)C)C(=O)N[C@@H](Cc1ccc(O)cc1)C(=O)N[C@@H](CO)C(=O)N[C@@H](CC(C)C)C(=O)N[C@H](C(=O)N[C@@H](Cc1c[nH]cn1)C(=O)N[C@@H](CC(N)=O)C(=O)N[C@@H](CC(C)C)C(=O)O)C(C)C [Peptide 1126.14]
A2 peptide: 3/3

CC[C@H](C)[C@H](NC(=O)[C@H](Cc1ccc(O)cc1)NC(=O)[C@H](C)NC(=O)[C@@H](NC(=O)CNC(=O)[C@H](CCCNC(=N)N)NC(=O)[C@H](CCC(=O)O)NC(=O)[C@H](CCC(N)=O)NC(=O)[C@H](CC(C)C)NC(=O)[C@@H](N)CC(C)C)C(C)C)C(=O)O [Peptide 1129.01]
A2 peptide: 3/3

CSCC[C@H](NC(=O)CN)C(=O)N1CCC[C@H]1C(=O)N[C@@H](CCC(=O)O)C(=O)NCC(=O)N[C@@H](CC(=O)O)C(=O)N[C@@H](CC(C)C)C(=O)N[C@H](C(=O)N[C@@H](Cc1ccc(O)cc1)C(=O)N[C@H](C(=O)O)C(C)C)C(C)C [Peptide 1129.04]
A2 peptide: 0/1

CC[C@H](C)[C@H](NC(=O)[C@H](CC(=O)O)NC(=O)[C@H](Cc1ccccc1)NC(=O)[C@H](CC(C)C)NC(=O)[C@H](C)N)C(=O)N[C@@H](CCC(=O)O)C(=O)N[C@@H](CO)C(=O)N[C@@H](CCCCN)C(=O)N[C@H](C(=O)O)C(C)C [Peptide 1129.08]
A2 peptide: 2/2

CC[C@H](C)[C@H](NC(=O)[C@@H]1CCCN1C(=O)[C@H](Cc1c[nH]cn1)NC(=O)[C@@H](NC(=O)[C@@H]1CCCN1C(=O)[C@@H](NC(=O)[C@H](CO)NC(=O)[C@@H]1CCCN1C(=O)[C@H](CC(C)C)NC(=O)CN)[C@@H](C)CC)C(C)C)C(=O)O [Peptide 1129.10]
A2 peptide: 2/4

CSCC[C@H](NC(=O)[C@H](C)NC(=O)[C@H](CO)NC(=O)[C@H](CCSC)NC(=O)[C@H](CC(C)C)NC(=O)[C@@H](N)[C@@H](C)O)C(=O)N[C@H](C(=O)N[C@@H](CC(N)=O)C(=O)N[C@@H](CC(C)C)C(=O)O)[C@@H](C)O [Peptide 1177.01]
A2 peptide: 2/2

CSCC[C@H](N)C(=O)N[C@@H](CC(C)C)C(=O)N[C@@H](CC(C)C)C(=O)N[C@@H](CCCNC(=N)N)C(=O)N[C@@H](CC(C)C)C(=O)N[C@@H](CO)C(=O)N[C@@H](CCC(=O)O)C(=O)N1CCC[C@H]1C(=O)N[C@H](C(=O)O)C(C)C [Peptide 1389.10]
A2 native: 1/3 | A2 peptide: 3/3

CC(C)C[C@H](NC(=O)[C@H](C)N)C(=O)NCC(=O)N[C@H](C(=O)N[C@H](C(=O)N[C@@H](CS)C(=O)N[C@@H](Cc1ccc(O)cc1)C(=O)N[C@H](C(=O)O)C(C)C)[C@@H](C)O)[C@@H](C)O [Peptide 1389.14]
A2 native: 1/3 | A2 peptide: 2/3

CC(C)C[C@H](NC(=O)[C@H](Cc1ccccc1)NC(=O)[C@H](Cc1ccccc1)NC(=O)CNC(=O)CNC(=O)[C@H](C)NC(=O)[C@H](CC(C)C)NC(=O)[C@@H](N)C(C)C)C(=O)N[C@H](C(=O)O)C(C)C [Peptide 1389.20]
A2 native: 1/2 | A2 peptide: 1/2

CC[C@H](C)[C@H](NC(=O)[C@H](CO)NC(=O)[C@@H]1CCCN1C(=O)[C@H](CC(C)C)NC(=O)CN)C(=O)N1CCC[C@H]1C(=O)N[C@H](C(=O)N[C@@H](Cc1c[nH]cn1)C(=O)N1CCC[C@H]1C(=O)N[C@H](C(=O)O)C(C)C)C(C)C [Peptide 1389.24]
A2 native: 3/4 | A2 peptide: 4/4

CC[C@H](C)[C@H](NC(=O)[C@H](CO)NC(=O)[C@H](CC(C)C)NC(=O)[C@H](CC(C)C)NC(=O)[C@@H](N)CC(C)C)C(=O)N[C@@H](C)C(=O)N[C@@H](CC(C)C)C(=O)N[C@@H](CO)C(=O)N[C@H](C(=O)O)C(C)C [Peptide 1418.13]
A2 native: 2/2 | A2 peptide: 2/2

CC(C)C[C@H](NC(=O)[C@H](Cc1c[nH]c2ccccc12)NC(=O)[C@H](Cc1ccccc1)NC(=O)[C@H](Cc1ccccc1)NC(=O)[C@@H](NC(=O)[C@@H](N)CC(C)C)[C@@H](C)O)C(=O)N[C@@H](CC(=O)O)C(=O)N[C@@H](CCCNC(=N)N)C(=O)N[C@@H](CO)C(=O)N[C@H](C(=O)O)C(C)C [Peptide 1418.23]
A2 native: 2/3 | A2 peptide: 3/3

CC[C@H](C)[C@H](N)C(=O)N[C@H](C(=O)N[C@@H](CC(C)C)C(=O)N[C@@H](Cc1c[nH]c2ccccc12)C(=O)N[C@@H](CCC(N)=O)C(=O)N1CCC[C@H]1C(=O)N[C@H](C(=O)N1CCC[C@H]1C(=O)N[C@H](C(=O)O)C(C)C)[C@@H](C)CC)[C@@H](C)O [Peptide 1418.25]
A2 native: 2/3 | A2 peptide: 3/3
